Laboratory results: paper PMC11189555, “Aryl amino acetamides prevent Plasmodium falciparum ring development via targeting the lipid-transfer protein PfSTART1” (Nature Communications, 2024)

Test system: ring-stage parasites
Test: Parasite reduction ratio assay
Format: cell-based, Plasmodium falciparum
Method: Parasite reduction ratio assay. This was performed as previously described 9,10.
Briefly, asynchronous ring -stage parasites at 0.5% parasitemia and 2% haematocrit were exposed to compounds at 10 x EC50 of growth for five days with daily drug renewal. After each 24 h, a well from each treatment group was taken and washed three times in complete RPMI and final volume adjusted to 2% haematocrit. The washed culture was then aliquoted into a 96 well U-bottom plate and a 1:3 serial dilution into fresh uninfected RBCs was performed with four technical replicates for each time point. Plates were maintained in normal culturing conditions: media was replaced, and fresh RBCs given 1-2 times a week for three weeks, after which parasite growth was measured via lactate dehydrogenase assays. The number of viable parasites was calculated using the formula xn-1 +1, where x is the dilution factor and n is the number of wells that contain parasite growth. The viable parasite value was then expressed in log units and parasite reduction ratio was calculated as a decrease in […]

CC(C)(Nc1ccc(Cl)c(S(=O)(=O)N2CCOCC2)c1)C(=O)Nc1ccc(F)c(Cl)c1 [W-991]
lag phases (60 nM W-991, lag phases 0-24 h, 48-96 h): more than 24 h
viable parasites after treatment (10 x EC50 (60 nM W-991) for up to 5 days, then 21 days culture): a proportion of parasites remained after a treatment period of 5 days
killing profile (10xEC50: 75 nM CQ, 60 nM W-991): slow
PRR calculations: log viability at Hours 24 (Replicate 1, 24 Hours): 4.771
PRR calculations: log viability at Hours 72 (Replicate 1, 72 Hours): 3.34
PRR (Replicate 1, PRR calculations): 1.431
log(parasite viability) +1 (Replicate 1, T=1): 4.771
Parasite viability (Replicate 1, T=1, 1:3 dilution): 59049
log(parasite viability) +1 (Replicate 1, T=2): 3.34
Parasite viability (Replicate 1, T=2, 1:3 dilution): 2187
log(parasite viability) +1 (Replicate 1, T=3): 3.34
Parasite viability (Replicate 1, T=3, 1:3 dilution): 2187
log(parasite viability) +1 (Replicate 1, T=4): 3.34
Parasite viability (Replicate 1, T=4, 1:3 dilution): 2187
log(parasite viability) +1 (Replicate 1, T=5): 2.863
Parasite viability (Replicate 1, T=5, 1:3 dilution): 729
log(parasite viability) +1 used in PRR calculations (Replicate 2, Hours 72): 3.34
log(parasite viability) +1 used in PRR calculations (Replicate 2, Hours 120): 1.914
PRR (Replicate 2, PRR calculations): 1.426
Parasite viability +1 (Replicate 2, T=1): 177148
log(parasite viability) +1 (Replicate 2, T=1): 5.248
Parasite viability (Replicate 2, T=1, 1:3 dilution): 177147
Parasite viability +1 (Replicate 2, T=2): 2188
log(parasite viability) +1 (Replicate 2, T=2): 3.34
Parasite viability (Replicate 2, T=2, 1:3 dilution): 2187
Parasite viability +1 (Replicate 2, T=3): 2188
log(parasite viability) +1 (Replicate 2, T=3): 3.34
Parasite viability (Replicate 2, T=3, 1:3 dilution): 2187
Parasite viability +1 (Replicate 2, T=4): 2188
log(parasite viability) +1 (Replicate 2, T=4): 3.34
Parasite viability (Replicate 2, T=4, 1:3 dilution): 2187
Parasite viability +1 (Replicate 2, T=5): 82
log(parasite viability) +1 (Replicate 2, T=5): 1.914
Parasite viability (Replicate 2, T=5, 1:3 dilution): 81
Parasite viability (1:3 dilution) (replicate 3, T=1): 177147
log(parasite viability) +1 (replicate 3, T=1): 5.248
Parasite viability (1:3 dilution) (replicate 3, T=2): 2187
log(parasite viability) +1 (replicate 3, T=2 (48 hours in PRR calculations)): 3.34
Parasite viability (1:3 dilution) (replicate 3, T=3): 729
log(parasite viability) +1 (replicate 3, T=3 (72 hours in PRR calculations)): 2.863
Parasite viability (1:3 dilution) (replicate 3, T=4): 19683
log(parasite viability) +1 (replicate 3, T=4): 4.294
Parasite viability (1:3 dilution) (replicate 3, T=5): 81
log(parasite viability) +1 (replicate 3, T=5 (120 hours in PRR calculations)): 1.914
PRR (replicate 3, difference of log viability over 48 h (CQ 0-48 hours, W991 72-120 hours)): 0.9495
